From BindingDB's records for patent US10781211 (LUNDBECK LA JOLLA RESEARCH CENTER, INC., 2020)

molecular target: T1, Monoglyceride lipase (Homo sapiens, UniProt Q99685); experiment: In Vitro Competitive Activity-Based Protein Profiling Assay
T1 sequence (Q99685 whole entry): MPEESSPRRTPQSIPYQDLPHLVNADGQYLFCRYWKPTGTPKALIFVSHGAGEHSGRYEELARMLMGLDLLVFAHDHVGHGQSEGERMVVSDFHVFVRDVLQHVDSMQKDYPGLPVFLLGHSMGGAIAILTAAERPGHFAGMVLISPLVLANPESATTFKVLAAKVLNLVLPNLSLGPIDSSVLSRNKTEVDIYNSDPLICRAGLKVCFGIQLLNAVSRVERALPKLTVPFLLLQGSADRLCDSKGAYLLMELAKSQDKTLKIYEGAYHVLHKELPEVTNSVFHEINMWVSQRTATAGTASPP
Experimental: Human: Proteomes (human prefrontal cortex or cell membrane fractions) (50 μL, 1.0-2.0 mg/mL total protein concentration) were preincubated with varying concentrations of inhibitors at 37° C. After 30 min, FP-Rh or JW912 (1.0 μL, 50 μM in DMSO) was added and the mixture was incubated for another 30 min at room temperature. Reactions were quenched with SDS loading buffer (15 μL-4X) and run on SDS-PAGE.

IC50, < 100 nM:
O=C(OC(C(F)(F)F)C(F)(F)F)N1CCC2(CCN(Cc3cc(CN4CCCCC4)cc(C(F)(F)F)c3)C2)CC1 [US10781211, Example 245]
CC1CCCN(c2cc(CN3CCCC34CCN(C(=O)OC(C(F)(F)F)C(F)(F)F)CC4)cc(C(F)(F)F)c2)C1 (configuration not stated) [US10781211, Example 221]
O=C(OC(C(F)(F)F)C(F)(F)F)N1CCC2(CCCN2Cc2cc(CN3CCCCC3)cc(C(F)(F)F)c2)CC1 [US10781211, Example 244]
O=C(OC(C(F)(F)F)C(F)(F)F)N1CCC2(CCN(Cc3ccc(N4CCCCC4)c(C(F)(F)F)c3)C2)CC1 [US10781211, Example 228]
CC1CCCN(c2cc(C(F)(F)F)ccc2CN2CCC3(CCN(C(=O)OC(C(F)(F)F)C(F)(F)F)CC3)C2)C1 (configuration not stated) [US10781211, Example 216]
O=C(OC(C(F)(F)F)C(F)(F)F)N1CCC2(CCCN2Cc2cc(N3CCOCC3)cc(C(F)(F)F)c2)CC1 [US10781211, Example 204]
O=C(OC(C(F)(F)F)C(F)(F)F)N1CCC2(CCCN2Cc2cc(N3CCCCC3)cc(S(F)(F)(F)(F)F)c2)CC1 [US10781211, Example 263]
O=C(OC(C(F)(F)F)C(F)(F)F)N1CCC2(CCN(Cc3cc(N4CCCC4)cc(C(F)(F)F)c3)C2)CC1 [US10781211, Example 202]
O=C(OC(C(F)(F)F)C(F)(F)F)N1CCC2(CCN(Cc3cc(F)cc(N4CCCCC4)c3)C2)CC1 [US10781211, Example 233]
O=C(OC(C(F)(F)F)C(F)(F)F)N1CCC2(CCCN2Cc2cc(N3CCCC3)cc(C(F)(F)F)c2)CC1 [US10781211, Example 203]
O=C(OC(C(F)(F)F)C(F)(F)F)N1CCC2(CCN(Cc3cc(Cl)cc(N4CCCCC4)c3)C2)CC1 [US10781211, Example 232]
O=C(OC(C(F)(F)F)C(F)(F)F)N1CCC2(CCN(Cc3ccc(C(F)(F)F)c(N4CCCCC4)c3)C2)CC1 [US10781211, Example 234]
CC1CN(c2cc(CN3CCC4(CCN(C(=O)OC(C(F)(F)F)C(F)(F)F)CC4)C3)cc(C(F)(F)F)c2)CCO1 (configuration not stated) [US10781211, Example 252]
O=C(OC(C(F)(F)F)C(F)(F)F)N1CCC2(CCCN2Cc2cc(CN3CCCCC3)cc(OC(F)(F)F)c2)CC1 [US10781211, Example 269]
CC1CCN(c2cc(C(F)(F)F)ccc2CN2CCC3(CCN(C(=O)OC(C(F)(F)F)C(F)(F)F)CC3)C2)C1 (configuration not stated) [US10781211, Example 219]
O=C(OC(C(F)(F)F)C(F)(F)F)N1CCC2(CCCN2Cc2ccc(C(F)(F)F)cc2CN2CCCC2)CC1 [US10781211, Example 262]
CC1CCN(c2cc(CN3CCC4(CCN(C(=O)OC(C(F)(F)F)C(F)(F)F)CC4)C3)cc(C(F)(F)F)c2)C1 (configuration not stated) [US10781211, Example 229]
O=C(OC(C(F)(F)F)C(F)(F)F)N1CCC2(CCN(Cc3cc(N4CCOCC4)cc(C(F)(F)F)c3)C2)CC1 [US10781211, Example 277]
O=C(OC(C(F)(F)F)C(F)(F)F)N1CCC2(CCN(Cc3ccc(S(F)(F)(F)(F)F)cc3N3CCCCC3)C2)CC1 [US10781211, Example 241]
O=C(OC(C(F)(F)F)C(F)(F)F)N1CCC2(CCN(Cc3ccc(C(F)(F)F)cc3N3CCCC3)C2)CC1 [US10781211, Example 201]
O=C(OC(C(F)(F)F)C(F)(F)F)N1CCC2(CCCN2Cc2cc(CN3CCCC3)cc(OC(F)(F)F)c2)CC1 [US10781211, Example 270]
O=C(OC(C(F)(F)F)C(F)(F)F)N1CCC2(CCCN2Cc2cc(F)cc(N3CCCCC3)c2)CC1 [US10781211, Example 236]
